Here are results for 4 compounds from PMC13077603, “Fluorine‐18‐Labeled Nucleotide Analogs Targeting Ecto‐5'‐Nucleotidase (CD73) for Positron Emission Tomography Imaging of Solid Tumors” (Angewandte Chemie (International Ed. in English), 2026).

Where “and” joins values, the source holds several entries; their conditions need not be identical. Identical values can stand only once. Like-named read-outs stand apart in the source and are kept apart here.

In data set [1] the target is T1, CD73 in human breast cancer samples (Homo sapiens, UniProt P21589).
T1 construct: cryosections of breast tumor samples as well as sentinel lymph node samples were investigated; from tissue; host or cells: primary breast tumors and sentinel lymph nodes of two patients, 6 µm cryosections
T1 sequence (P21589 27-574): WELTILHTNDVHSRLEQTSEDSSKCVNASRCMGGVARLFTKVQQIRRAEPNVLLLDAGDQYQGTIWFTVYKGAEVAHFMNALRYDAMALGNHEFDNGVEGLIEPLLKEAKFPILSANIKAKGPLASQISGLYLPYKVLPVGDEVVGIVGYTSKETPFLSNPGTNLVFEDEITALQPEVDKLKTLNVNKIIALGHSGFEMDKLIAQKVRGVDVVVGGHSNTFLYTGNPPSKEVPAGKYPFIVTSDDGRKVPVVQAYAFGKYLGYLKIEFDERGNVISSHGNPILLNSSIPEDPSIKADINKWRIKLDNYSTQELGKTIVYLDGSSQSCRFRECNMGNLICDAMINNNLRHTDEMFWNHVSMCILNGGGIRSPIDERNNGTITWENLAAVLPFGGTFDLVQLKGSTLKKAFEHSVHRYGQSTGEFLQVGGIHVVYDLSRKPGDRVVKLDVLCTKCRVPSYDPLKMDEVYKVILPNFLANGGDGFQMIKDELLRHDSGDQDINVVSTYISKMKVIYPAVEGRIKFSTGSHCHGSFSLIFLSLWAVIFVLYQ
Kind of data set: Autoradiography on human breast tumor and sentinel lymph node cryosections. The format is binding. Conditions: ∼1000‐fold excess of blocker with radiotracer. How it is done: To test specific radiotracer binding to its target, we performed in situ autoradiography. [^18F]2 was applied onto cryosections of neighboring slides of tumor tissues from primary breast tumors from patient X (Figure 4A) and patient Y (Figure 4B), used for immunohistochemistry and AMPase activity determination. Sentinel LN from patient Y was incubated with [^18F]1 (Figure 4C).
FIGURE 4 Autoradiographic imaging of ^18F‐labeled CD73 tracer binding to tissue samples of breast tumors and sentinel lymph nodes. Primary breast tumor (A, B) and LN cryosections (C) were incubated with [^18F]2 or [^18F]1 in the absence (control) and in the presence of an unlabeled CD73 inhibitor, AMPCP (13) or JMS04‐14 (14), as indicated. The samples were processed for autoradiographic analysis, as described in the materials and methods section. The white dotted lines outline the tissue boundaries. (D). Structures of CD73 inhibitors applied as blockers in this study.
For the assessment of ^18F-labeled CD73 tracer binding to human tissues, cryosections of breast tumor samples as well as sentinel lymph node samples were investigated. Cryosections were thawed and pre-incubated for 15 min at room temperature in 2-[4-(2-hydroxyethyl)piperazin-1-yl]ethanesulfonic acid buffer (HEPES). […] Blocking compounds were prepared according to the molar activity of the radiolabeled tracers [^18F]MRS-4648 and [^18F]PSB-19427 aiming at a 1000-fold excess of the blocking agent. For each tissue sample, neighboring sections were incubated for 20 min at room temperature with a mixture of 50µL of the radiotracer and 50µL of the classical CD73 inhibitor AMPCP (25 nmol, in PBS), or JMS0414 (61 nmol, in HEPES), or HEPES buffer respectively. After incubation, slides were washed three times with PBS and Aqua bidest, mounted on a slide holder for the image acquisition, and covered with protection and scintillation foils. Digital autoradiography measurement of each slide was performed for 60 minutes (Micro Imager, Biospace, France). Acquired data were corrected for radioactive decay in reference to the start of the acquisition as well as the start of the incubation.

The test system of data set [2] is MDA‐MB‐231 tumor. Kind of data set: PET imaging in MDA-MB-231 breast cancer xenograft model. The class given is in vivo, NSG mice. Conditions: MDA‐MB‐231 model. How it is done:
Given the specificity of [^18F]1 and [^18F]2 and the promising in vivo biodistribution profile of [^18F]1, we established a small‐animal human breast tumor xenograft model in NSG mice subcutaneously implanted with MDA‐MB‐231 cells. […] For blocking studies, PSB‐12651 (15, Figure 6) or unlabeled 1 were used.
FIGURE 6 PET imaging data in an MDA‐MB‐231 tumor mouse model. (A). PET images, CT scans, and merged images of [^18F]2 in the MDA‐MB‐231 tumor mouse model 90 min after tracer injection. White arrows mark the tumor positions. (B). Quantitative PET analysis of [^18F]2 uptake: activity concentration of [^18F]2 in muscle and tumor tissues 90 min after tracer injection (left) and respective tumor‐to‐muscle ratio (right, n = 5 tumors). (C). PET‐CT images of [^18F]1 and [^18F]FDG in the MDA‐MB‐231 tumor mouse model, 260 min ([^18F]1), or 75 min ([^18F]FDG) after injection. […] White arrows mark the positions of tumors. (D). Quantitative PET analysis of [^18F]1 uptake: activity concentration of [^18F]1 and [^18F]FDG in muscle and tumor tissues (left) and tumor‐to‐muscle ratios (right) after 260 min. [^18F]1: n = 18 tumors, [^18F]1 plus unlabeled 1 block: n = 8 tumors, [^18F]1 plus compound 15 block: n = 6 tumors, [^18F]FDG: n = 18 tumors E. Ex vivo analysis of [^18F]1 uptake as measured by gamma counter: activity concentrations of [^18F]1 in muscle and tumor tissues after 260 min without and with blocking (left) and tumor‐to‐muscle ratios (right). [^18F]1: n = 6 tumors, [^18F]1 plus unlabeled 1 block: n = 6 tumors, [^18F]1 plus compound 15 block: n = 5 tumors.^# relative to the respective muscle, *relative to [^18F]1 without blocker, relative to the unblocked tumor; *<0.05; **<0.01, ***<0.001,^#<0.05; ^## <0.01, ^###<0.001, <0.05; <0.01, <0.001, ns: non‐significant, unpaired t‐test.
MDA-MB-231 cells were cultivated in DMEM/GlutaMAX, supplemented with 10 % fetal calf serum, 100 U/mL penicillin, and 100 µg/mL streptomycin and L-glutamine to a final concentration of 8 mmol/L. AsPC-1 cells were cultivated in RPMI, supplemented with 10 % fetal calf serum, 100 U/mL penicillin, and 100 µg/mL streptomycin and L-glutamine to a final concentration of 8 mmol/L. 5 x 10^6 MDA-MB-231 or 1x 10^6 AsPC-1 cells were injected subcutaneously into the shoulder region of 7 to 12 weeks old NSG (NOD.Cg-Prkdc^scid Il2rg^tm1Wjl/SzJ) mice (Charles River Laboratories). Two tumors were inoculated per animal, and growth was followed by digital caliper measurements (volume = ½ (length * width^2)).
Adult C57bl/6 (biodistribution study, 19.8±1.3 g) or tumor-bearing NSG mice (22.2±2.2 g) were anesthetized by isoflurane/O2, and one lateral tail vein was cannulated using a 27 G needle. A respective radiotracer (~ 390 kBq/g body weight) was injected as a bolus via the tail vein, and subsequent PET scanning was performed. A ~1000-fold excess of unlabeled JMS0414 (14 for [^18F]MRS-4648 ([^18F]2)), unlabeled PSB-19427 (1), or PSB-12651 (15) (for [^18F]PSB-19427 ([^18F]1)) was injected into a subgroup of tumor-bearing mice 10 min before radiotracer injection in the blocking studies. PET imaging studies were carried out using a submillimeter high resolution (0.7 mm full width at half-maximum) small animal scanner (32 module quadHIDAC, Oxford Positron Systems Ltd., Oxford, UK) with a uniform spatial resolution (<1 mm) over a large cylindrical field (165 mm diameter, 280 mm axial length). […]

Data set [3] has as its target T2, CD73 (cell membrane preparations of MDA-MB-231 cells) (Homo sapiens, UniProt P21589).
T2 construct: endogenous in cells; host or cells: MDA-MB-231 (human triple-negative breast cancer) membrane preparation
T2 sequence (P21589 27-574): T1 sequence (P21589 27-574)
Put plainly: Kinetic rate index radioligand binding assay, estimation of residence time. The source says:
Besides affinity, binding kinetics play a crucial role in determining in vivo tracer performance. The clinical CD73 inhibitor Quemliclustat has been reported to display a very long residence time. We therefore determined the kinetic rate index (KRI) of selected CD73 inhibitors using a radioligand binding assay. […] These comparatively long residence times indicate slow dissociation from the target, which may contribute to the sustained tumor retention of [^18F]1 observed in vivo. Another effect that might play a role is pharmacological inhibition of CD73 by the high concentration of the CD73 inhibitor used for blocking. This will lead to a strong reduction in adenosine concentrations, for example, in blood vessels and other tissues, which may change hemodynamics and drug distribution. […]
Cell membrane preparations of MDA-MB-231 cells were performed as previously described.^[9^] A dual point competition assay (at 20 min and 90 min) using [^3H]PSB-17230 was employed for the determination of kinetic rate index (KRI) in analogy to a published procedure,^[60^] determined at 25°C. The residence times were calculated by linear correlation based on a large database of previously determined KRI values and residence times of analogs.

In the case of `Cn1c(=O)n([C@@H]2O[C@H](COP(=O)(O)CP(=O)(O)O)[C@@H](O)[C@H]2O)cc/c1=N/OCc1ccccc1` [JMS04-14, reference compound], in data set [1], the “Effect of co-incubated blocker on tissue-associated radioactivity” value is listed as “markedly reduced”.
In the case of `O=P(O)(O)CP(=O)(O)OC[C@H]1O[C@@H](n2cnc3c(NCc4ccccc4)nc(Cl)nc32)[C@H](O)[C@@H]1O` [PSB-12651, reference compound], the “Effect of blocker pre-treatment on tumor-to-muscle ratio of [18F]1” value in data set [2] (~1000-fold excess injected 10 min before tracer) was “markedly reduced”. Also, the residence time in data set [3] (estimated from kinetic rate index, [3H]PSB-17230, 25 °C, read-out: Residence time) was 31 min.
Regarding `O=C[C@H]([18F])[C@@H](O)[C@H](O)[C@H](O)CO` [[^18F]FDG, 2‐deoxy‐2‐[^18F]fluoro‐D‐glucose, reference compound], the Tumor-to-muscle ratio in data set [2] ([18F]FDG PET, 75 min after injection) is 2.04 ± 1.0 and 2.04.
Consider `Nc1ncnc2c1ncn2[C@@H]1O[C@H](COP(=O)(O)CP(=O)(O)O)[C@@H](O)[C@H]1O` [AMPCP, reference compound], for which, in data set [1], the “Effect of co-incubated blocker on tissue-associated radioactivity” value is reported as “markedly reduced”. In addition, the residence time in data set [3] is 8.8 min.
